Holding throughout (assay type): cell-based
Test [1] concerns Bacillus cereus. Description: Agar plate disc-diffusion, antibacterial inhibition zone. The conditions noted are these: nutrient agar, 37° C., 48 h. How it is done: (§1) The agar plate disc-diffusion method was applied. […] The discs were then placed onto the surface of agar plates (nutrient agar for bacteria and Sabouraud's dextrose agar for fungi) seeded with the test organism. Each plate contained 15 mL of the agar medium, previously seeded with 0.2 mL of the broth culture of each organism pregrown for 18 h. The plates were incubated at 37° C. for 48 h, and 72 h for fungi. The inhibition zones was measured in mm. Discs impregnated with DMSO were used as a control, and its inhibition zone was subtracted from the tested compound actual inhibition zone.

Test [2] has as its system Aspergillus flavus. Kind of test: Agar plate disc-diffusion, antifungal inhibition zone. The settings on record: Sabouraud's dextrose agar, 72 h. How it is done:
as §1
(In agar diffusion tests the substance spreads into inoculated agar from a disc or well.)

Test [3] concerns Chrysosporium keratinophilum. Described as above. The settings on record: Sabouraud's dextrose agar, 72 h. How it is done: as §1
Test [4] has as its system Escherichia coli. Kind of test: Agar plate disc-diffusion, antibacterial inhibition zone. The conditions noted are these: nutrient agar, 37° C., 48 h. How it is done:
as §1

The subject of test [5] is Pseudomonas aeruginosa. The description is as above. The conditions noted are these: nutrient agar, 37° C., 48 h. How it is done:
as §1

For test [6], the system named is Staphylococcus aureus. The test is described as above. The settings on record: nutrient agar, 37° C., 48 h. How it is done: as §1
The mark [7] stands for this setting: B = concentration of comp. = 30,000 μL.
The mark [8] stands for this setting: A = concentration of comp. = 10,000 μL.
The mark [9] stands for this setting: C = concentration of comp. = 50,000 μL.

Here are results for two compounds from patent publication US12195430B1, “6-(4,5-bis(4-bromophenyl)-2-(4-methoxyphenyl)-1H-imidazol-1-yl)hexanoic acid as an antimicrobial compound” (KING FAISAL UNIVERSITY, priority 2023, dated 2025).

`O=C(O)c1cn(C2CC2)c2cc(N3CCNCC3)c(F)cc2c1=O` [Cip., reference compound]: the “inhibition zone, Bacillus Cereus” value in test [1] (setting [7]) was 31 mm. Moreover, the “inhibition zone, Aspergillus flavus” value in test [2] (setting [8]) is on record as 28 mm; in test [2] (setting [7]), 31 mm; in test [2] (setting [9]), 43 mm. Further, the entries for the “inhibition zone, Chrysosporium keratinophilum” value in test [3] (setting [7]) and in test [3] (setting [9]) were 33 mm and 55 mm, respectively.
For `COc1ccc(-c2nc(-c3ccc(Br)cc3)c(-c3ccc(Br)cc3)n2CCCCCC(=O)O)cc1` [V, 6-(4,5-bis(4-bromophenyl)-2-(4-methoxyphenyl)-1H-imidazol-1-yl)hexanoic acid], the “inhibition zone, Bacillus Cereus” value in test [1] (setting [8]) is reported as 18 mm; in test [1] (setting [7]) it was 20 mm; in test [1] (setting [9]), 35 mm. Moreover, the “inhibition zone, Escherichia coli” value stood at 27 mm in test [4] (setting [8]), 35 mm in test [4] (setting [7]) and 49 mm in test [4] (setting [9]). Also, the “inhibition zone, Pseudomonas aeruginosa” value was found to be 26 mm in test [5] (setting [8]), 28 mm in test [5] (setting [7]) and 40 mm in test [5] (setting [9]). In addition, the results for the “inhibition zone, Staphylococcus aureus” value in test [6] (setting [8]), in test [6] (setting [7]) and in test [6] (setting [9]) were 21 mm, 28 mm and 38 mm, respectively. The “inhibition zone, Aspergillus flavus” value is given as 25 mm in test [2] (setting [8]), 28 mm in test [2] (setting [7]) and 35 mm in test [2] (setting [9]). For the same compound, the “inhibition zone, Chrysosporium keratinophilum” value in test [3] (setting [8]) was determined as 25 mm; in test [3] (setting [7]) it was 27 mm; in test [3] (setting [9]) it was 47 mm.
